# Like-named read-outs stand apart in the source and are kept apart here.
# Key:
# [1] = test system: MDA-N; assay: NCI 60 cell line screen (SRB), Breast Cancer; type: cell-based
# [2] = test system: MCF7; assay: NCI 60 cell line screen (SRB), Breast Cancer; type: cell-based
# [3] = test system: NCI-H23; assay: NCI 60 cell line screen (SRB), Non-Small Cell Lung Cancer; type: cell-based
# [4] = test system: OVCAR-4; assay: NCI 60 cell line screen (SRB), Ovarian Cancer; type: cell-based
# [5] = test system: MB231/ATCC (second line of the wrapped label, with values of its own); assay: NCI 60 cell line screen (SRB), Breast Cancer; type: cell-based
# [6] = test system: HCT-15; assay: NCI 60 cell line screen (SRB), Colon Cancer; type: cell-based
# [7] = test system: KM12; assay: NCI 60 cell line screen (SRB), Colon Cancer; type: cell-based
# [8] = test system: BT-549; assay: NCI 60 cell line screen (SRB), Breast Cancer; type: cell-based
# [9] = test system: MDA-MB-435; assay: NCI 60 cell line screen (SRB), Breast Cancer; type: cell-based
# [10] = test system: DU-145; assay: NCI 60 cell line screen (SRB), Prostate Cancer; type: cell-based
# [11] = test system: RXF 393; assay: NCI 60 cell line screen (SRB), Renal Cancer; type: cell-based
# [12] = test system: U251; assay: NCI 60 cell line screen (SRB), CNS Cancer; type: cell-based
# [13] = test system: CAKI-1; assay: NCI 60 cell line screen (SRB), Renal Cancer; type: cell-based
# [14] = test system: A498; assay: NCI 60 cell line screen (SRB), Renal Cancer; type: cell-based
# [15] = test system: 786-0; assay: NCI 60 cell line screen (SRB), Renal Cancer; type: cell-based
# [16] = test system: SNB-19; assay: NCI 60 cell line screen (SRB), CNS Cancer; type: cell-based
# [17] = test system: MOLT-4
# Description: The screening assay is performed on 96-well microtitre plates. Relatively high initial inoculation densities are used, in order to permit measurement of “time-zero” values and to enhance the screen's ability to detect and provide some differentiation between antiproliferative and cytotoxic response parameters. […] The inoculated microtitre plates are pre-incubated for 24 hours at 37θC prior to drug additions. The five drug dilutions tested routinely range from 10^−4 to 10^−8 molar. Higher or lower concentration ranges may be selected on a nonroutine basis if appropriate solubility and/or prior biological information or other screening data so dictate. Duplicate wells are prepared for all concentrations, (concentration is often denoted by placing brackets around a number); “time-zero” and “no drug” controls are also provided for each test. The minimum amount of compound required for a one-time evaluation in the routine screen can be calculated from the knowledge that each test requires a total of approximately 40 ml (0.04 liter) of cell culture medium containing the highest desired drug concentration. Thus, the amount (grams) of sample required (assuming an upper test concentration limit of 10^−4 M) is: molecular weight of compound×[…]. After a 48 hour incubation (37θC) with the test compound, the cells are fixed in situ to the bottoms of the microtitre wells by addition of 50 ul of either 50% trichloroacetic acid (for adherent cell lines) or 80% trichloroacetic acid (for settled cell suspension lines), followed by incubation for 60 minutes at 4θC. The cellular protein in each well is assayed using a sulforhodamine B (SRB) stain procedure. Briefly, after discarding the supernatants, the microtitre plates are washed 5 times with deionized water and air-dried. One hundred microliters of SRB solution (0.4% w/v in 1% acetic acid) is added to each microtitre well and incubated for 10 minutes at room temperature. Unbound SRB is removed by washing 5 times with 1 % acetic acid. The plates are air-dried, the bound stain is solubilized with Tris buffer, and the optical densities read at 515 nm. SRB is a bright pink anionic dye which, in dilute acetic acid, binds electrostatically to the basic amino acids of TCA-fixed cells. Cryopreserved master stocks of all the lines are maintained, and cultures used for screening are replaced from the master stock after no more than twenty passages in the screening laboratory. The cell line panel consists of 60 lines, organized into nine, disease-related subpanels including leukemia, non-small-cell lung cancer, colon, CNS, melanoma, ovarian, renal, prostate and breast cancers.
# The response parameters G150 and LC50 are interpolated values representing the concentrations at which the percentage growth (PG) is +50 and −50, respectively:
# GI50 is the concentration for which the PG=+50. At this value the increase from time tzero, in the number or mass of cells in the test well is only 50% as much as the corresponding increase in the control well during this period of the experiment, see Table II. A drug effect of this intensity is interpreted as primary growth inhibition.
# TGI is the concentration for which PG=0. At this value the number or mass of cells in the well at the end of the experiment equals the number or mass of cells in the well at time tzero, see Table III. A drug effect of this intensity is regarded as cytostasis.
# LC50 is the concentration for which the PG=−50. At this value, the number or mass of cells in the test well at the end of the experiment is half that at time tzero, see Table IV. This is interpreted as cytotoxicity.
# [18] = test system: OVCAR-3; assay: NCI 60 cell line screen (SRB), Ovarian Cancer; type: cell-based; details: PG=0
# [19] = test system: NCI/ADR-RES; assay: NCI 60 cell line screen (SRB), Breast Cancer; type: cell-based
# [20] = test system: RPMI-8226; assay: NCI 60 cell line screen (SRB), Leukemia; type: cell-based
smiles,measurement,setting,value
CC1=C(C=Cc2cccc(C=CC3=C(C)C4CCC(C)C5CCC6(C)OOC45C(O3)O6)c2)OC2OC3(C)CCC4C(C)CCC1C24OO3 (stereo not shown) [VII-f],Log10TGI,[1]; PG=0,−4.18 log10M
same,Log10GI50,[1]; PG=+50,−5.74 log10M
same,Log10GI50,"[1]; Table IV (LC50, PG=−50)",>−4.00 log10M
same,Log10TGI,[2]; PG=0,>−4.00 log10M
same,Log10GI50,[2]; PG=+50,−6.06 log10M
same,Log10GI50,"[2]; Table IV (LC50, PG=−50)",>−4.00 log10M
same,Log10TGI,[3]; PG=0,−4.36 log10M
same,log10 GI50 or LC50 (see conditions),[3]; PG=+50,−5.32 log10M
same,log10 GI50 or LC50 (see conditions),"[3]; Table IV (LC50, PG=−50)",>−4.00 log10M
same,Log10GI50,"[4]; OVCAR-4, PG=+50",−5.93 log10M
same,Log10GI50,"[4]; Table IV (LC50, PG=−50), OVCAR−4",>−4.00 log10M
same,Log10GI50,[5]; PG=+50,−6.13 log10M
same,Log10GI50,"[5]; Table IV (LC50, PG=−50)",>−4.00 log10M
same,Log10TGI,[6]; PG=0,−4.82 log10M
same,"log10 GI50 (PG=+50) or LC50 (PG=−50), per row condition",[6]; PG=+50,−6.13 log10M
same,"log10 GI50 (PG=+50) or LC50 (PG=−50), per row condition","[6]; Table IV (LC50, PG=−50)",>−4.00 log10M
same,Log10TGI,[7]; PG=0,>−4.00 log10M
same,Log10GI50,[7]; PG=+50,−6.23 log10M
same,Log10GI50,"[7]; Table IV (LC50, PG=−50)",>−4.00 log10M
same,Log10GI50,[8]; PG=+50,−6.50 log10M
same,Log10GI50,"[8]; Table IV (LC50, PG=−50)",>−4.00 log10M
same,Log10TGI,"[9]; MDA-MB-435, PG=0",>−4.00 log10M
same,Log10GI50,"[9]; MDA-MB−435, PG=+50",−5.86 log10M
same,Log10GI50,"[9]; Table IV (LC50, PG=−50), MDA-MB-435",>−4.00 log10M
same,Log10TGI,[10]; PG=0,>−4.00 log10M
same,Log10GI50,[10]; PG=+50,−5.16 log10M
same,Log10GI50,"[10]; Table IV (LC50, PG=−50)",>−4.00 log10M
same,Log10TGI,[11]; PG=0,>−4.00 log10M
same,Log10GI50,[11]; PG=+50,−5.91 log10M
same,Log10GI50,"[11]; Table IV (LC50, PG=−50)",>−4.00 log10M
same,Log10TGI,[12]; PG=0,>−4.00 log10M
same,Log10GI50,[12]; PG=+50,−6.03 log10M
same,Log10GI50,"[12]; Table IV (LC50, PG=−50)",>−4.00 log10M
same,Log10TGI,[13]; PG=0,>−4.00 log10M
same,Log10GI50,[13]; PG=+50,−5.17 log10M
same,Log10GI50,"[13]; Table IV (LC50, PG=−50)",>−4.00 log10M
same,Log10TGI,[14]; PG=0,−4.37 log10M
same,Log10GI50,[14]; PG=+50,−4.79 log10M
same,Log10GI50,"[14]; Table IV (LC50, PG=−50)",>−4.00 log10M
same,Log10TGI,[15]; PG=0,>−4.00 log10M
same,Log10GI50,[15]; PG=+50,−5.40 log10M
same,Log10GI50,"[15]; Table IV (LC50, PG=−50)",>−4.00 log10M
same,Log10TGI,[16]; PG=0,>−4.33 log10M
same,Log10GI50 or Log10LC50 (see condition),[16]; PG=+50,−5.85 log10M
same,Log10GI50 or Log10LC50 (see condition),"[16]; Table IV (LC50, PG=−50)",>−4.33 log10M
same,drug concentration for cytotoxicity (percentage growth −50),[17],greater than 10^−4 M
same,drug concentration for cytostasis (percentage growth 0),"[17]; MOLT-4, FIGS. 6a-6e",approximately 10^−4 M
same,drug concentration for primary growth inhibition (percentage growth +50),"[17]; MOLT-4, FIGS. 6a-6e",greater than 10^−6 molar
same,Log10GI50,"[17]; MOLT-4, PG=+50",−6.23 log10M
same,Log10TGI,"[17]; MOLT−4, PG=0",−6.23 log10M
same,Log10GI50,"[17]; Table IV (LC50, PG=−50), MOLT−4",>−4.00 log10M
same,Log10TGI,[18],>−4.00 log10M
same,Log10TGI,[19]; PG=0,−4.34 log10M
same,Log10GI50,[19]; PG=+50,−5.29 log10M
same,Log10GI50,"[19]; Table IV (LC50, PG=−50)",>−4.00 log10M
same,Log10TGI,[20]; PG=0,−6.21 log10M
same,Log10GI50,[20]; PG=+50,−6.21 log10M
same,Log10GI50,"[20]; Table IV (LC50, PG=−50)",>−4.00 log10M

# From patent publication US20020055528A1, “Artemisinin analogs having antimalarial, antiproliferative, and antitumor activities and chemoselective methods of making the same” (priority 1999, published 2002)
